Reference: ChEMBL document CHEMBL5236653, “Dual functional antioxidant and butyrylcholinesterase inhibitors for the treatment of Alzheimer's disease: Design, synthesis and evaluation of novel melatonin-alkylbenzylamine hybrids” (Bioorg Med Chem, 2023)

How the values were obtained:
[1] = Antioxidant activity assessed as trolox equivalent of ORAC radical scavenging activity by ORAC assay; type: functional
[2] = in vitro; details: PAMPA
Description: Permeability coefficient of the compound across blood brain barrier incubated for 18 hrs by PAMPA assay

[3] = target: T1, Cholinesterase (Homo sapiens, UniProt P06276); assay: Inhibition of human serum BuChE using ATCI and BTCI as substrate preincubated for 5 mins followed by substrate addition and measured after 3 mins by DTNB-reagent based Ellman's method; type: cell-free
T1 sequence (P06276 whole entry): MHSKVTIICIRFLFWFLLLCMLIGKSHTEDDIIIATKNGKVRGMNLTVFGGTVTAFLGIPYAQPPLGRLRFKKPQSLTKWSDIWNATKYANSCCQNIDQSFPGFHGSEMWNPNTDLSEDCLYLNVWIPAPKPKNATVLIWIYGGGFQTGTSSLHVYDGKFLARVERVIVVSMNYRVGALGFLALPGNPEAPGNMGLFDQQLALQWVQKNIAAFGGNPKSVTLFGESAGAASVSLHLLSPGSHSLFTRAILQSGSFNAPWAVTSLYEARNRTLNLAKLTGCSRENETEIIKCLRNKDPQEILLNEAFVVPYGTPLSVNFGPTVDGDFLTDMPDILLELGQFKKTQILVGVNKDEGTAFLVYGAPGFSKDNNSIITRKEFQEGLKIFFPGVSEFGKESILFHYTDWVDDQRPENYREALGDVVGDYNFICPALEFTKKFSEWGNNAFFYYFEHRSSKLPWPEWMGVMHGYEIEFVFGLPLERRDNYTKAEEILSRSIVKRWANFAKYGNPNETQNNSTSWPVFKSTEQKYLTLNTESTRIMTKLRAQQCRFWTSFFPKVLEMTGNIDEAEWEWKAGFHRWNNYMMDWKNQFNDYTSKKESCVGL

[4] = target: T2, Acetylcholinesterase (Homo sapiens, UniProt P22303); assay: Inhibition of human erythrocyte AChE using ATCI and BTCI as substrate preincubated for 5 mins followed by substrate addition and measured after 3 mins by DTNB-reagent based Ellman's method
T2 sequence (P22303 whole entry): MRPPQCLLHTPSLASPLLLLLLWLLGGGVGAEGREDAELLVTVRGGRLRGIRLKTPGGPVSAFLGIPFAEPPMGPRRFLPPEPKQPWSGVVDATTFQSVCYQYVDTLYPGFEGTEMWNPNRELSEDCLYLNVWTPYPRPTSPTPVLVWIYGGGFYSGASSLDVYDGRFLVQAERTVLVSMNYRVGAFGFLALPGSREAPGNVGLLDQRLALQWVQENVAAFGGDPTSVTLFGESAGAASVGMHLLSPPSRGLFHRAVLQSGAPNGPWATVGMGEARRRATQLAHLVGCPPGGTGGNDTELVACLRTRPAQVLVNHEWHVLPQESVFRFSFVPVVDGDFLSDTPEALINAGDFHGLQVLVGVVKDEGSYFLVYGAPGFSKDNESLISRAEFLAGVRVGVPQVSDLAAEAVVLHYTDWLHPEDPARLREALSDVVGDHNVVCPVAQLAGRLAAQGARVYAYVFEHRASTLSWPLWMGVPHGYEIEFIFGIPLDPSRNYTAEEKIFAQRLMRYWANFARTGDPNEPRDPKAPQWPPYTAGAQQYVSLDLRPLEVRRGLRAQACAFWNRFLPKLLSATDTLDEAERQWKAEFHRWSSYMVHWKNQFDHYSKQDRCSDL

[5] = target: Acetylcholinesterase (Electrophorus electricus, UniProt O42275); assay: Inhibition of electric eel AChE using ATCI and BTCI as substrate preincubated for 5 mins followed by substrate addition and measured after 3 mins by DTNB-reagent based Ellman's method
Chain of Acetylcholinesterase (Electrophorus electricus, UniProt O42275) (O42275 whole entry): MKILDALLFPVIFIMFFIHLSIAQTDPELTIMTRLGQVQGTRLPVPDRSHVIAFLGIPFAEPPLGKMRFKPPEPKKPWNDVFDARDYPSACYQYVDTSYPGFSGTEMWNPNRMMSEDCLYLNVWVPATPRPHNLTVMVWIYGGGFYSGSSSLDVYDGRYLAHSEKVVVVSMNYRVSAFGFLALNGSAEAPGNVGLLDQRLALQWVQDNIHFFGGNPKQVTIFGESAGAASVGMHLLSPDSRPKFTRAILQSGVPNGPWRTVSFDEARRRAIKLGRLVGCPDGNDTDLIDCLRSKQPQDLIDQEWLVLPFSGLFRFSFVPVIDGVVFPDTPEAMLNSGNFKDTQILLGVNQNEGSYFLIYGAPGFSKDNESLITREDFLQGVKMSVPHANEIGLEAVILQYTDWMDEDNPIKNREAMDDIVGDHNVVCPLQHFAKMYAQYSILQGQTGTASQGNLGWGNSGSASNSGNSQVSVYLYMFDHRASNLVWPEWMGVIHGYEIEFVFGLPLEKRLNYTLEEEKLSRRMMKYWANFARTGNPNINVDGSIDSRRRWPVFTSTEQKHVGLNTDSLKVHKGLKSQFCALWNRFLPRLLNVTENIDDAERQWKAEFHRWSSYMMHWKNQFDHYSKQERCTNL

[6] = Selectivity index, ratio of IC50 for inhibition of human erythrocyte AChE to IC50 for inhibition of human serum BuChE
[7] = target: Cholinesterase (Equus caballus, UniProt P81908); assay: Inhibition of equine serum BuChE using ATCI and BTCI as substrate preincubated for 5 mins followed by substrate addition and measured after 3 mins by DTNB-reagent based Ellman's method; type: cell-free
Chain of Cholinesterase (Equus caballus, UniProt P81908) (P81908 whole entry): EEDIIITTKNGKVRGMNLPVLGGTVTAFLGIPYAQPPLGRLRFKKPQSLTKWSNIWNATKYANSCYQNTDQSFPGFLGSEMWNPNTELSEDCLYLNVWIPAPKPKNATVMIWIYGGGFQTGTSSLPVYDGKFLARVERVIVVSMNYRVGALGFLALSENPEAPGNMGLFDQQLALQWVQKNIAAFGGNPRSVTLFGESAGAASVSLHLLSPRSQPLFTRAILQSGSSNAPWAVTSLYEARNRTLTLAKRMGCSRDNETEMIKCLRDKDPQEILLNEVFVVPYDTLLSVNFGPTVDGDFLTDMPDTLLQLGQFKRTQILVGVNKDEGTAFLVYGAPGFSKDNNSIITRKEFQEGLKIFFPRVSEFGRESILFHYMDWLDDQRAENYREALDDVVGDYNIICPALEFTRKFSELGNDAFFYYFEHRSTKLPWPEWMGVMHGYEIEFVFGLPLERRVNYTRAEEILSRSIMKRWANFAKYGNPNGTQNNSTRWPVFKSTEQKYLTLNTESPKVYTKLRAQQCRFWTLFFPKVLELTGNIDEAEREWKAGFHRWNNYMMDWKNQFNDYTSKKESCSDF

[8] = Selectivity index, ratio of IC50 for inhibition of human erythrocyte AChE to inhibition of human serum BuChE
[9] = target: T2, Acetylcholinesterase; assay: Inhibition of human erythrocyte AChE at 100 uM using ATCI and BTCI as substrate preincubated for 5 mins followed by substrate addition and measured after 3 mins by DTNB-reagent based Ellman's method relative to control; details: time 8.0 min
[10] = test system: Mus musculus; assay: Antialzheimer activity in scopolamine-induced cognitive impairment Kunming mouse model assessed as number of errors in step down test at 20 mg/kg, po administered for 1 hr followed by scopolamine induction for 0.5 hr and measured after 5 min (Rvb=2.2); type: functional; details: time 95 min, 1.583 h
[11] = target: T1, Cholinesterase; assay: Mixed type inhibition of human BuChE assessed as inhibition constant using butyrylthiocholine iodide as substrate by lineweaver-burk plot analysis
[12] = test system: PC-12; assay: Cytotoxicity against rat PC12 cells assessed as cell viability at 0.625 to 10 uM measured after 24 hrs by CCK-8 assay; type: toxicity, cell-based; details: pc-12, 24 h, dose 0.625-10 µM
[13] = Acute toxicity in Kunming mouse assessed as abnormalities in lung at 2500 mg/kg, po measured on day 14 by H and E staining based histopathological analysis; type: organism-based; details: in vivo, 336 h, time 14 day
[14] = test system: PC-12; assay: Activation of Nrf2-ARE pathway in rat PC-12 cells assessed as upregulation of GPX4 expression level incubated for 8 hrs by Western blot analysis; type: cell-based; details: filed as activator, dose >= 2.0 µM
[15] = Acute toxicity in Kunming mouse assessed as abnormalities in liver at 2500 mg/kg, po measured on day 14 by H and E staining based histopathological analysis; type: organism-based; details: in vivo, 336 h, time 14 day
[16] = Acute toxicity in Kunming mouse at >= 2500 mg/kg, IG measured for 14 days; type: organism-based; details: in vivo, po, 336 h, time 14 day
[17] = test system: Mus musculus; assay: Antialzheimer activity in scopolamine-induced cognitive impairment Kunming mouse model assessed as step down latency time at 20 mg/kg, po administered for 1 hr followed by scopolamine induction for 0.5 hr and measured after 5 min (Rvb=36.25 sec); type: functional; details: time 95 min, 1.583 h
[18] = test system: Mus musculus; assay: Antialzheimer activity in scopolamine-induced cognitive impairment Kunming mouse model assessed as number of errors in step down test at 80 mg/kg, po administered for 1 hr followed by scopolamine induction for 0.5 hr and measured after 5 min; type: functional; details: time 95 min, 1.583 h
[19] = Acute toxicity in Kunming mouse assessed as effect on body weight at 625 to 2500 mg/kg, po measured at 4 to 14 days; type: organism-based; details: in vivo, dose lower 625 mg/kg, time lower 4 day, dose upper 2500 mg/kg, time upper 14 day
[20] = Acute toxicity in Kunming mouse assessed as abnormalities in kidney at 2500 mg/kg, po measured on day 14 by H and E staining based histopathological analysis; type: organism-based; details: in vivo, 336 h, time 14 day
[21] = Acute toxicity in Kunming mouse assessed as abnormalities in brain at 2500 mg/kg, po measured on day 14 by H and E staining based histopathological analysis; type: organism-based; details: in vivo, 336 h, time 14 day
[22] = test system: PC-12; assay: Activation of Nrf2-ARE pathway in rat PC-12 cells assessed as upregulation of NQO1 expression level incubated for 8 hrs by Western blot analysis; type: cell-based; details: filed as activator, dose >= 2.0 µM
[23] = Cytotoxicity against mouse BV-2 cells assessed as cell viability at 10 uM measured after 24 hrs by CCK-8 assay; type: toxicity, cell-based; details: read-out: Activity
[24] = test system: Mus musculus; assay: Antialzheimer activity in scopolamine-induced cognitive impairment Kunming mouse model assessed as step down latency time at 80 mg/kg, po administered for 1 hr followed by scopolamine induction for 0.5 hr and measured after 5 min; type: functional; details: time 95 min, 1.583 h
[25] = test system: PC-12; assay: Activation of Nrf2-ARE pathway in rat PC-12 cells assessed as increase in Nrf2 expression level incubated for 4 to 8 hrs by Western blot analysis; type: cell-based; details: filed as activator, dose >= 2.0 µM, time 4-8 hrs
[26] = test system: PC-12; assay: Activation of Nrf2-ARE pathway in rat PC-12 cells assessed as increase in Nrf2 expression level in nucleus at 1 uM by Western blot analysis; type: cell-based; details: filed as activator, time >= 8.0 hrs, TDE = time-dependent effect
[27] = target: Acetylcholinesterase (Electrophorus electricus) (UniProt O42275); assay: Inhibition of electric eel AChE at 100 uM using ATCI and BTCI as substrate preincubated for 5 mins followed by substrate addition and measured after 3 mins by DTNB-reagent based Ellman's method relative to control; details: time 8.0 min
Chain of Acetylcholinesterase (Electrophorus electricus) (O42275 24-633 limits assumed): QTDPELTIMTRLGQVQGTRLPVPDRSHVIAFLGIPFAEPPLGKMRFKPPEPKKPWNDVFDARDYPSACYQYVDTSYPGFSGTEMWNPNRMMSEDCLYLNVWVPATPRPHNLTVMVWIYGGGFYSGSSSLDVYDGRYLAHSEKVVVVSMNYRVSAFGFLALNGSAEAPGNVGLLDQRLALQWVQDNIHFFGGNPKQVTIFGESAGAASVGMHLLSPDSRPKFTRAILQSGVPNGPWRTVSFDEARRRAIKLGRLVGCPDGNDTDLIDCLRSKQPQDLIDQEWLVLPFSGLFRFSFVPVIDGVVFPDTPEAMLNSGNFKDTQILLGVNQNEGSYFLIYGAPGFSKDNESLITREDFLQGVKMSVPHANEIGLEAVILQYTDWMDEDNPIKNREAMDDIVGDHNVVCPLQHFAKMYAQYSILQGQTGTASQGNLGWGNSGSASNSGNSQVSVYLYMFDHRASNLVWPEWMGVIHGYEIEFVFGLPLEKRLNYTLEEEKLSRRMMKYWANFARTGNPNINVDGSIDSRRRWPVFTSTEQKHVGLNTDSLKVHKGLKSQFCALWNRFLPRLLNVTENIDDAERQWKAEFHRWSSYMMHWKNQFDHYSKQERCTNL

[28] = Selectivity index, ratio of IC50 for inhibition of equine serum BuChE to inhibition of electric eel AChE

| Compound | Activity [1] [equiv] | Papp at 18 h [2] [×10⁻⁶ cm/s] | IC50 [3] [µM] | IC50 [4] [µM] | IC50 [5] [µM] | Ratio IC50 [6] | IC50 [7] [µM] | further results |
| --- | --- | --- | --- | --- | --- | --- | --- | --- |
| CCN(CCCCCCCCCCCCn1cc(C=O)c2cc(OC)ccc21)Cc1cccc(O)c1 | 0.13 | 8.18 | 0.88 | 42.5 | 10.5 | 48.3 | 0.19 | – |
| COc1ccc2c(c1)c(C=O)cn2CCCCCCCCCCCCN(C)Cc1ccc(O)cc1 | < 0.01 | 10 | 0.26 | 60.6 | 33.8 | – | 1.04 | Selectivity Index [8]: > 100 |
| COc1ccc(CN(C)CCCCCCCCCCCCn2cc(C=O)c3cc(OC)ccc32)cc1 | < 0.01 | 4.09 | 0.43 | – | 79.9 | 233 | 5.49 | inhibition [9]: 46.1% |
| COc1ccc2c(c1)c(C=O)cn2CCCCCCCCN(C)Cc1cccc(O)c1 | 0.22 | 6.05 | 2.15 | 2.6 | 3.39 | 1.21 | 5.26 | – |
| COc1cccc(CN(C)CCCCCCCCCCCCn2cc(C=O)c3cc(OC)ccc32)c1 | < 0.01 | 1.82 | 5.49 | – | 69.1 | – | 0.43 | Selectivity Index [8]: > 200; inhibition [9]: 46.1% |
| COc1ccc2c(c1)c(C=O)cn2CCCCCCN(C)Cc1ccc(O)cc1 | 0.61 | – | – | – | 0.54 | – | 7.2 | – |
| COc1ccc2c(c1)c(C=O)cn2CCCCCCCN(C)Cc1ccc(O)cc1 | 1.55 | 4.19 | 0.89 | 1.61 | 1.43 | 1.81 | 2.1 | – |
| COc1ccc2c(c1)c(C=O)cn2CCCCCN(C)Cc1ccc(O)cc1 | 0.78 | – | – | – | 26.9 | – | 6.19 | – |
| COc1ccc2c(c1)c(C=O)cn2CCCCCCCN(C)Cc1cccc(O)c1 | < 0.01 | 4.78 | 4.89 | 5.54 | 1.39 | 1.13 | 5.47 | – |
| COc1ccc2c(c1)c(C=O)cn2CCCCCN(C)Cc1cccc(O)c1 | 0.2 | – | – | – | 7.13 | – | 45.4 | – |
| O=c1c(O)c(-c2ccc(O)c(O)c2)oc2cc(O)cc(O)c12 | 6.14 | – | – | – | – | – | – | – |
| CN(C)CCCN1c2ccccc2Sc2ccc(Cl)cc21 [CHLORPROMAZINE] | – | 5.93 | – | – | – | – | – | – |
| CN(CCCCCCCCCCCCn1cc(C=O)c2cc(O)ccc21)Cc1cccc(O)c1 | 5.13 | 9.98 | 1.2 | 177 | 69.5 | 148 | 2.14 | Activity [10]: 2.5; Ki [11]: 1.77 µM; Activity [12]: Non-Toxic; Activity [13]: Non-Toxic; Activity [14]: Dose-Dependent Effect; Activity [15]: Non-Toxic; Activity [16]: Non-Toxic; Time [17]: 17.6 s; Activity [18]: 0.6; Activity [19]: Non-Toxic; Activity [20]: Non-Toxic; Activity [21]: Non-Toxic; Activity [22]: Dose-Dependent Effect; viability at 24 h, 10 µM [23]: > 50%; Time [24]: 233 s; Activity [25]: Dose-Dependent Effect; Activity [26]: Tde |
| COc1ccc2c(c1)c(C=O)cn2CCCCCCCCCCCCN(C)Cc1ccc(OC)c(OC)c1 | < 0.01 | 5.27 | – | – | 51.8 | – | 0.88 | – |
| COc1ccc2c(c1)c(C=O)cn2CCCCCCCCN(C)Cc1ccc(O)cc1 | 0.28 | 4.62 | 0.49 | 2.06 | 1.77 | 4.2 | 0.45 | – |
| COc1ccc2c(c1)c(C=O)cn2CCCCCCCCCCN(C)Cc1ccc(O)cc1 | 0.05 | 5.46 | 0.19 | 0.6 | 1.47 | 3.16 | 0.12 | – |
| COc1ccc2c(c1)c(C=O)cn2CCCN(C)Cc1cccc(O)c1 | 0.37 | – | – | – | – | – | 72.3 | inhibition [27]: 48.1%; Selectivity Index [28]: > 1 |
| COc1ccc2c(c1)c(C=O)cn2CCCCCCCCCCCCN(C)Cc1cccc(O)c1 | < 0.01 | 4.71 | 0.15 | 76.5 | 27.6 | 510 | 0.31 | – |
| C[C@]12CC[C@@H]3c4ccc(O)cc4CC[C@H]3[C@@H]1CC[C@@H]2O [ESTRADIOL] | – | 14.1 | – | – | – | – | – | – |
| COc1ccc2c(c1)c(C=O)cn2CCCCCCCCCCCCCCN(C)Cc1cccc(O)c1 | < 0.01 | – | – | – | 31.6 | – | 8.76 | – |
| COc1ccc2c(c1)c(C=O)cn2CCCCN(C)Cc1ccc(O)cc1 | 0.91 | – | – | – | 65.2 | – | 20.1 | – |
| COc1ccc2c(c1)c(C=O)cn2CCCN(C)Cc1ccc(O)cc1 | 1.12 | 5.69 | – | – | 67.6 | – | 6.53 | – |
| COc1ccc2c(c1)c(C=O)cn2CCCCCCCCCCN(C)Cc1cccc(O)c1 | < 0.01 | 5.76 | 0.19 | 4.52 | 3.1 | 23.8 | 0.61 | – |
| COc1ccc2c(c1)c(C=O)cn2CCCCN(C)Cc1cccc(O)c1 | < 0.01 | – | – | – | – | – | 42 | inhibition [27]: 48.2%; Selectivity Index [28]: > 2 |
| COc1ccc2c(c1)c(C=O)cn2CCCCCCN(C)Cc1cccc(O)c1 | 0.82 | – | – | – | 0.81 | – | 16.2 | – |
| COc1ccc2c(c1)c(C=O)cn2CCCCCCCCCN(C)Cc1cccc(O)c1 | < 0.01 | – | 2.36 | 5.19 | 3.36 | 2.2 | 1.63 | – |
| COc1ccc2c(c1)c(C=O)cn2CCCCCCCCCN(C)Cc1ccc(O)cc1 | < 0.01 | 5.85 | 0.39 | 6.23 | 25.8 | 16 | 0.53 | – |
